In ChEMBL document CHEMBL1158338, “Synthesis of (+/-)Abyssinone I and related compounds: Their anti-oxidant and cytotoxic activities” (Eur J Med Chem, 2009):
The source made the active and inactive calls.

Tests used:
[1] = test system: Radical scavenging activity; test: Antioxidant activity assessed as DPPH radical scavenging activity at 200 ug after 30 mins by UV-visible spectrophotometry; type: functional
[2] = test system: MCF7; test: Cytotoxicity against human MCF7 cells at 25 to 150 uM after 72 hrs by MTT assay; type: functional, cell-based
[3] = Antioxidant activity assessed as ferric ion reducing activity at 200 ug after 20 mins by UV-visible spectrophotometry; type: functional

Measured: Activity

COc1ccc(C2CC(=O)c3ccc(O)cc3O2)cc1CC=C(C)C (centres undefined)
active: all assays above

O=C(/C=C/c1ccc(O)cc1)c1ccc(O)cc1O
active: all assays above

CC(C)=CCc1cc(C2CC(=O)c3ccc(O)cc3O2)ccc1O (centres undefined)
active: all assays above

CC1(C)CCc2cc(/C=C/C(=O)c3ccc(O)cc3O)ccc2O1
active: all assays above

CC1(C)C=Cc2cc(C3CC(=O)c4ccc(O)cc4O3)ccc2O1 (centres undefined)
active: all assays above

CC1(C)CCc2cc(C3CC(=O)c4ccc(O)cc4O3)ccc2O1 (centres undefined)
active: all assays above

COc1ccc(/C=C/C(=O)c2ccc(O)cc2O)cc1
active: all assays above

O=C1C[C@@H](c2ccc(O)cc2)Oc2cc(O)ccc21
active: all assays above

CC1(C)C=Cc2cc(/C=C/C(=O)c3ccc(O)cc3O)ccc2O1
active: all assays above

CC(C)=CCOc1ccc(/C=C/C(=O)c2ccc(O)cc2O)cc1
active: all assays above

COc1ccc(/C=C/C(=O)c2ccc(O)cc2O)cc1CC=C(C)C
active: all assays above

CC(C)=CCc1cc(/C=C/C(=O)c2ccc(O)cc2O)ccc1O
active: all assays above

COc1ccc(C2CC(=O)c3ccc(O)cc3O2)cc1 (centres undefined)
active: all assays above
